Where two headings read alike, the source gives them in different places.
Columns and labels:
PRMT5 = target: T1, PRMT5 (Homo sapiens, UniProt O14744); assay: PRMT5 Cell Target Engagement (TE) Assay; type: cell-based; settings: MCF-7 cells, treated for 3 days, symmetric dimethylation of arginine (SDMA) by high content imaging
T1 construct: seeded with 4000 MCF-7 cells in 30 μl media; endogenous in cells; host or cells: MCF-7 cells
Method in brief: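 Readout is single-cell nuclear symmetric-dimethylarginine immunofluorescence (Alexa488), normalized to DMSO-treated cells. Compounds were applied to MCF-7 cells for 3 days at 37 °C, top concentration 10000 nM in 1:3 steps over ten points; curves fitted with 4-parameter robust fit.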

[1] = target: T2, PRMT5-MEP50 enzyme complex (Homo sapiens, UniProt O14744); assay: PRMT5-MEP50 Enzyme Methylation Assay (Version A); type: biochemical
T2 construct: Full-length (FL)-PRMT5-MEP50 enzyme complex (recombinant proteins from baculovirus-transfected Sf21 cells: FL-PRMT5; MW=73837 kDa and FL-MEP50; MW=38614); made in house; host or cells: baculovirus-transfected Sf21 cells

[2] = first of two EC50s: 7 parameters biphasic model, read-out: Enzyme Methylation Assay Version A (EC50_1)
[3] = second of two EC50s: 7 parameters biphasic model, read-out: Enzyme Methylation Assay Version A (EC50_2)
[4] = only one EC50 shown: 4 parameters single site sigmoidal model, 60 min pre-incubation with SAM, read-out: Enzyme Methylation Assay Version A (EC50)

T1 sequence (O14744 whole entry): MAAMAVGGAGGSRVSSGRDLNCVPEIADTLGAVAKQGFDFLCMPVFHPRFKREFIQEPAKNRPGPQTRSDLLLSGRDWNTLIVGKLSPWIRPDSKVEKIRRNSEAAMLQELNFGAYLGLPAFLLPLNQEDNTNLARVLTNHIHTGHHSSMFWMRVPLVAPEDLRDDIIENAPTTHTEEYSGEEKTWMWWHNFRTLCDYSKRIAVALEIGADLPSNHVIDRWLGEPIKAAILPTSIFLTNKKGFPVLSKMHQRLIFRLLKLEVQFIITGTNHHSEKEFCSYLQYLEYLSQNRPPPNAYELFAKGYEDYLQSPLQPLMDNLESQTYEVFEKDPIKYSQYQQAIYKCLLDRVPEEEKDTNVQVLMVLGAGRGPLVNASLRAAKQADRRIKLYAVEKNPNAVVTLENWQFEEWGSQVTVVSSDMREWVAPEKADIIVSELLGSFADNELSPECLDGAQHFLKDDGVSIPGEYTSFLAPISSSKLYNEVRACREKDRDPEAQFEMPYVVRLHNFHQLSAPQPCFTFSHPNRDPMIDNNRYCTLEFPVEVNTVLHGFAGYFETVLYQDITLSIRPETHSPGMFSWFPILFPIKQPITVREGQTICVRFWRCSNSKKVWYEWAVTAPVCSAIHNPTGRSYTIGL
T1 sequence (Q9BQA1 whole entry partner): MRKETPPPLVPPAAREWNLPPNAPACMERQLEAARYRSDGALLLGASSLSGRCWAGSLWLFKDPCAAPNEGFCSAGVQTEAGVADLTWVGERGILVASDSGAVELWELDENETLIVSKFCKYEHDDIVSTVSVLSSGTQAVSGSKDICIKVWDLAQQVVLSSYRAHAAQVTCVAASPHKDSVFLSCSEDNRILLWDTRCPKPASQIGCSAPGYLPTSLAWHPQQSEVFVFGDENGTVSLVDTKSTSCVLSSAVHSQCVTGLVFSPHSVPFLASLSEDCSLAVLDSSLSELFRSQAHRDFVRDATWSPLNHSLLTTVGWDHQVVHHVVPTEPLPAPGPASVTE
T2 sequence (O14744 whole entry): as the sequence (O14744 whole entry) above
T2 sequence (Q9BQA1 whole entry partner): as the sequence (Q9BQA1 whole entry partner) above

Row | Compound | EC50 (PRMT5) [µM] | EC50 [1, 2] [µM] | EC50 [1, 3] [µM] | EC50 [1, 4] [µM]
1 | CN1CCC(Nc2cc(C(=O)N3CC[C@H](N4CCc5ccccc5C4)[C@@H](O)C3)c(F)cn2)CC1=O (stereo partly drawn) [Example 112, 4-((4-((3S,4S)-4-(3,4-dihydroisoquinolin-2(1H)-yl)-3-hydroxypiperidine-1-carbonyl)-5-fluoropyridin-2-yl)amino)-1-methylpiperidin-2-one] | 0.05 | 0.0045 | 4.42 | 
2 | O=C(c1cc(NC2CC3CCC(C2)N3)ncc1F)N1CC[C@H](N2CCc3ccccc3C2)[C@@H](O)C1 (stereo partly drawn) [Example 121, (2-((8-azabicyclo[3.2.1]octan-3-yl)amino)-5-fluoropyridin-4-yl)((3S,4S)-4-(3,4-dihydroisoquinolin-2(1H)-yl)-3-hydroxypiperidin-1-yl)methanone] | 1.59 | 0.014 | 2.88 | 
3 | CC(=O)N1C2CCC1CC(Nc1cc(C(=O)N3CC[C@H](N4CCc5ccccc5C4)[C@@H](O)C3)c(F)cn1)C2 (stereo partly drawn) [Example 122, 1-(3-((4-((3S,4S)-4-(3,4-dihydroisoquinolin-2(1H)-yl)-3-hydroxypiperidine-1-carbonyl)-5-fluoropyridin-2-yl)amino)-8-azabicyclo[3.2.1]octan-8-yl)ethan-1-one] | 0.0059 |  |  | 0.0034
4 | CC(=O)N1CC[C@@H](CNc2cc(C(=O)N3CC[C@H](N4CCc5ccccc5C4)[C@@H](O)C3)c(F)cn2)C1 [Example 123, 1-((S)-3-(((4-((3S,4S)-4-(3,4-dihydroisoquinolin-2(1H)-yl)-3-hydroxypiperidine-1-carbonyl)-5-fluoropyridin-2-yl)amino)methyl)pyrrolidin-1-yl)ethan-1-one] | 0.017 |  |  | 0.0041
5 | CC(=O)N1C[C@H]2CC[C@@H](C1)C2Nc1cc(C(=O)N2CC[C@H](N3CCc4ccccc4C3)[C@@H](O)C2)c(F)cn1 (stereo partly drawn) [Example 124, 1-((1R,5S)-8-((4-((3S,4S)-4-(3,4-dihydroisoquinolin-2(1H)-yl)-3-hydroxypiperidine-1-carbonyl)-5-fluoropyridin-2-yl)amino)-3-azabicyclo[3.2.1]octan-3-yl)ethan-1-one] | 0.033 | 0.0052 | 4.27 | 
6 | N#CC1(c2ccc3nc(C(=O)N4CC[C@H](N5CCc6ccccc6C5)[C@@H](O)C4)cn3c2)CC1 [Example 125, 1-(2-((3S,4S)-4-(3,4-dihydroisoquinolin-2(1H)-yl)-3-hydroxypiperidine-1-carbonyl)imidazo[1,2-a]pyridin-6-yl)cyclopropane-1-carbonitrile] | 1.75 | ~0.058 | 13.7 | 
7 | O=C(c1ccc2c(O)c(CC(F)(F)F)cnc2c1)N1CC[C@H](N2CCc3ccccc3C2)[C@@H](O)C1 [Example 126, ((3S,4S)-4-(3,4-dihydroisoquinolin-2(1H)-yl)-3-hydroxypiperidin-1-yl)(4-hydroxy-3-(2,2,2-trifluoroethyl)quinolin-7-yl)methanone] | 0.069 | 0.0011 | 1.33 | 
8 | O=C(c1cn2cc(Cl)ccc2n1)N1CC[C@H](N2CCc3ccccc3C2)[C@@H](O)C1 [Example 132, (6-chloroimidazo[1,2-a]pyridin-2-yl)[(3S,4S)-4-(3,4-dihydroisoquinolin-2(1H)-yl)-3-hydroxypiperidin-1-yl]methanone] | 0.032 |  |  | 0.0032
9 | O=C(c1nn2cc(Br)cnc2c1Cl)N1CC[C@H](N2CCc3ccccc3C2)[C@@H](O)C1 [Example 133, (6-bromo-3-chloropyrazolo[1,5-a]pyrimidin-2-yl)[(3S,4S)-4-(3,4-dihydroisoquinolin-2(1H)-yl)-3-hydroxypiperidin-1-yl]methanone] | 0.14 | 0.0032 | 0.569 | 
10 | Cc1cc(Br)c2nc(C(=O)N3CC[C@H](N4CCc5ccccc5C4)[C@@H](O)C3)cn2c1 [Example 134, (8-bromo-6-methylimidazo[1,2-a]pyridin-2-yl)[(3S,4S)-4-(3,4-dihydroisoquinolin-2(1H)-yl)-3-hydroxypiperidin-1-yl]methanone] | 0.043 | 0.0018 | 0.202 | 
11 | Cc1cc(Br)cn2cc(C(=O)N3CC[C@H](N4CCc5ccccc5C4)[C@@H](O)C3)nc12 [Example 135, (6-bromo-8-methylimidazo[1,2-a]pyridin-2-yl)[(3S,4S)-4-(3,4-dihydroisoquinolin-2(1H)-yl)-3-hydroxypiperidin-1-yl]methanone] | 0.012 |  |  | 0.0017

Continued, values first:

Row | EC50 (PRMT5) [µM] | EC50 [1, 2] [µM] | EC50 [1, 3] [µM] | EC50 [1, 4] [µM] | Compound
12 | 0.05 | 0.0012 | 0.079 |  | Cc1cc(Cl)c2nc(C(=O)N3CC[C@H](N4CCc5ccccc5C4)[C@@H](O)C3)cn2c1 [Example 136, (8-chloro-6-methylimidazo[1,2-a]pyridin-2-yl)[(3S,4S)-4-(3,4-dihydroisoquinolin-2(1H)-yl)-3-hydroxypiperidin-1-yl]methanone]
13 | 0.0092 |  |  | 0.0011 | O=C(c1cn2cc(C(F)(F)F)cc(Cl)c2n1)N1CC[C@H](N2CCc3ccccc3C2)[C@@H](O)C1 [Example 137, [8-chloro-6-(trifluoromethyl)imidazo[1,2-a]pyridin-2-yl][(3S,4S)-4-(3,4-dihydroisoquinolin-2(1H)-yl)-3-hydroxypiperidin-1-yl]methanone]
14 | 0.017 | 0.0011 | 0.039 |  | O=C(c1cn2cc(Cl)cc(Br)c2n1)N1CC[C@H](N2CCc3ccccc3C2)[C@@H](O)C1 [Example 138, (8-bromo-6-chloroimidazo[1,2-a]pyridin-2-yl)[(3S,4S)-4-(3,4-dihydroisoquinolin-2(1H)-yl)-3-hydroxypiperidin-1-yl]methanone]
15 | 0.0076 |  |  | 0.0013 | O=C(c1cn2cc(Br)cc(I)c2n1)N1CC[C@H](N2CCc3ccccc3C2)[C@@H](O)C1 [Example 139, (6-bromo-8-iodoimidazo[1,2-a]pyridin-2-yl)[(3S,4S)-4-(3,4-dihydroisoquinolin-2(1H)-yl)-3-hydroxypiperidin-1-yl]methanone]
16 | 0.028 | 0.0008 | 0.065 |  | O=C(c1cn2cc(Cl)cc(Cl)c2n1)N1CC[C@H](N2CCc3ccccc3C2)[C@@H](O)C1 [Example 140, (6,8-dichloroimidazo[1,2-a]pyridin-2-yl)[(3S,4S)-4-(3,4-dihydroisoquinolin-2(1H)-yl)-3-hydroxypiperidin-1-yl]methanone]
17 | 0.021 |  |  | 0.0011 | O=C(c1cn2cc(Br)cc(F)c2n1)N1CC[C@H](N2CCc3ccccc3C2)[C@@H](O)C1 [Example 141, (6-bromo-8-fluoroimidazo[1,2-a]pyridin-2-yl)[(3S,4S)-4-(3,4-dihydroisoquinolin-2(1H)-yl)-3-hydroxypiperidin-1-yl]methanone]
18 | 0.0086 |  |  | 0.0011 | O=C(c1cn2cc(Br)cc(Br)c2n1)N1CC[C@H](N2CCc3ccccc3C2)[C@@H](O)C1 [Example 142, (6,8-dibromoimidazo[1,2-a]pyridin-2-yl)[(3S,4S)-4-(3,4-dihydroisoquinolin-2(1H)-yl)-3-hydroxypiperidin-1-yl]methanone]
19 | 0.806 | 0.0028 | 1.82 |  | O=C(c1cc2ncc(Br)cn2n1)N1CC[C@H](N2CCc3ccccc3C2)[C@@H](O)C1 [Example 143, (6-bromopyrazolo[1,5-a]pyrimidin-2-yl)[(3S,4S)-4-(3,4-dihydroisoquinolin-2(1H)-yl)-3-hydroxypiperidin-1-yl]methanone]

Reference: US12595248B2, “PRMT5 inhibitors” (Merck Sharp & Dohme LLC, priority 2019, dated 2026)
